Laboratory results reported in PMC2579264 (European journal of pharmacology, 2008).
Positions count from the first letter of the chain named.

Assays:
[1] = test system: CHO cells expressing the A^34A^35 receptor; assay: Bio-Gel P-4 gel filtration of internalized agonist, A^34A^35 receptor; conditions: 100 pM [^125I] peptide YY(3–36); detected by [^125I] label; 2 to 15 min
[2] = test system: human neuropeptide Y Y2 receptor, wildtype; format: cell-based
[3] = biological target: T1, human neuropeptide Y Y2 receptor, A^34A^35 (Homo sapiens, UniProt P49146, D35A/P34A); assay: Compartmentalization: unmasking / depletion of surface sites, A^34A^35 mutant; format: cell-based
T1 sequence (P49146 1-381 P34A/D35A): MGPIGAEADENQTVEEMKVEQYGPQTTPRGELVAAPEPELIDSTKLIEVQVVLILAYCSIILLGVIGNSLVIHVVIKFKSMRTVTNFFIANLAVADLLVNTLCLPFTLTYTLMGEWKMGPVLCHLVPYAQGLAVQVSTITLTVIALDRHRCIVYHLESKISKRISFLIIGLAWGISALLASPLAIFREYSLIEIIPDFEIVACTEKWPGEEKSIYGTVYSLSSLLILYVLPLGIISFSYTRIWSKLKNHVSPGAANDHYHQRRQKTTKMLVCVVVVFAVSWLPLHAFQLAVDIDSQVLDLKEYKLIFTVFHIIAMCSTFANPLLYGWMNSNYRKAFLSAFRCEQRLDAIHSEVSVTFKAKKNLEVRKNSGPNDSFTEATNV

[4] = test system: Chinese hamster ovary (CHO) cells; assay: Loss of cell protein or detachment of cells after digitonin pretreatment; format: cell-based; conditions: 10 µM digitonin pretreatment at 25 °C
[5] = biological target: T1, human neuropeptide Y Y2 receptor, A^34A^35; assay: Receptor-linked internalization of agonist, A^34A^35 mutant; format: cell-based; conditions: heparin 5 µM, n = 12
[6] = test system: neuropeptide Y Y2 receptor; assay: Effect of heparin on binding of peptide YY; parameters: species or system human; conditions: heparin up to 30 µM; cell surface or particulate Y2 receptors
[7] = biological target: T2, human neuropeptide Y Y2 receptor, wildtype (P^34D^35) (Homo sapiens, UniProt P49146); assay: Receptor-linked internalization of agonist, wildtype Y2 receptor; format: cell-based; conditions: heparin 5 µM, n = 12
T2 sequence (P49146 1-381): T1 sequence (P49146 1-381 P34A/D35A) with A34P, A35D

N[C@@H](Cc1ccc(O)cc1)C(=O)O [C-terminal tyrosine, tyrosine]
accumulation of product of peptide YY processing in cells [1]: no accumulation

pertussis toxin: pertussis toxin, used to deplete the compartmentalized surface Y2 sites
basal cell surface binding of [^125I] peptide YY(3–36) after pertussis toxin [2]: did not substantially reduce | surface sites unmasked by the arsenical after pertussis toxin [2]: strongly reduced | basal cell surface binding of [^125I] peptide YY(3–36) after pertussis toxin [3]: did not substantially reduce | surface sites unmasked by the arsenical after pertussis toxin [3]: almost eliminated

C[C@@H]1CC[C@@]2(OC1)O[C@H]1[C@@H](O)[C@H]3[C@@H]4CC[C@H]5C[C@@H](O[C@@H]6O[C@H](CO)[C@H](O[C@@H]7O[C@H](CO)[C@@H](O)[C@H](O[C@@H]8OC[C@@H](O)[C@H](O)[C@H]8O)[C@H]7O[C@@H]7O[C@H](CO)[C@H](O)[C@H](O[C@@H]8O[C@H](CO)[C@@H](O)[C@H](O)[C@H]8O)[C@H]7O)[C@H](O)[C@H]6O)[C@H](O)C[C@]5(C)[C@H]4CC[C@]3(C)[C@H]1[C@@H]2C [digitonin]
loss of cell protein or detachment of cells [4]: did not result in a loss of cell protein or a detachment of cells

heparin
increase of internalization of 100 pM [^125I] peptide YY(3–36) ([5]; 4 min): 43.5 ± 3.5% | increase of internalization of 100 pM [^125I] peptide YY(3–36) ([5]; 10 min): 25.1 ± 5% | effect on affinity and capacity of binding of peptide YY(3–36) [6]: did not affect the affinity and capacity of the binding | increase of internalization of 100 pM [^125I] peptide YY(3–36) ([7]; 4 min): 19.4 ± 2% | increase of internalization of 100 pM [^125I] peptide YY(3–36) ([7]; 10 min): 4.8 ± 1.8%
